Results as given in US8426414B2, “Modulators of G protein-coupled receptor 88” (Bristol-Myers Squibb Company, priority 2009, dated 2013).
Structures can show the parent of a compound that is named as a salt.

Molecular target: G protein-coupled receptor 88 (Homo sapiens, UniProt Q9GZN0)
Test: GPR88 functional assay for the Table 2 EC50 values (GTPγS assay and cAMP HTRF assay described; table does not say which)
Assay type: cell-based
Details: class symbol X; read-out: Range (EC50)
Experimental: 96 well GTPγS assay plates were purchased from Perkin Elmer. Wheat Germ Agglutinin PVT SPA beads and […] were purchased from Amersham GDP, GTPγS and all buffer reagents were from Sigma. 384 well white NBS plates were purchased from corning. Pertussis toxin was purchased from Calbiochem. All cell culture reagents were purchased from Invitrogen. Forskolin was purchased from Sigma. The cAMP HTRF kit was purchased from Cisbio International.
The GTPγS assay buffer consisted of 10 mM MgCl2, 180 mM NaCl, 200 uM GDP, 0.167 mg/ml DTT, 1 mM EGTA and 20 mM HEPES pH7.4. This buffer was used for dilution of membranes, beads, and ^35S GTPγS components. To each well of the 96 well assay plate 48 ul assay buffer, 2 ul of 100× compound, 50 ul membrane solution (0.2 ug/ul), 50 ul ^35S GTPγS solution (0.8 nM) and 50 ul of SPA beads (10 mg/ml). Non-specific binding was determined by the addition of cold GTPγS to control wells. The plates were sealed with clear sealing tape and incubated at room temperature for 1 hour. GTPγS activity was detected using a Wallac Micro-Beta Trilux liquid scintillation counter. Non-specific binding was determined using 10 uM cold GTPγS.
The cAMP HTRF assay is modified from the Cisbio International kit procedure 62AM4PEJ. Assay plates were prepared by stamping 0.1 ul of 100× compound stock solutions diluted in DMSO or DMSO alone into 384 well NBS plates. The cAMP HTRF assay was performed using cells in suspension. The cAMP HTRF assay buffer consisted of Hank's Balanced Salt Solution (HBSS), 2 mM CaCl2, 5 mM MgCl2, 20 mM HEPES and 1 mM 3-isobutyl-1-methylxanthine (IBMX) (added fresh at the time of assay). For pertussis toxin treatment pertussis toxin (100 ng/ml) was added to culture medium for 16 hours prior to assay. Confluent cells were disrupted with cell dissociation buffer count cells then centrifuged at 1000×g for 5 minutes. The cell pellet was resuspended in assay buffer alone for basal cAMP measurements or with 0.75 uM forskolin (added immediately prior to addition to wells) for addition to all other wells. Using a Multidrop 384 (Lab systems) 10 ul of cell suspension was added to each well containing compound or DMSO. The plates were incubated at room temperature for 30 minutes covered. During this time the cAMP standard curve was prepared as per manufacturer's instruction. At the end of the incubation 10 ul of anti-cAMP cryptate and 10 ul cAMP-XL, diluted in manufacturer's lysis buffer, were added to each well. The plated were incubated at room temperature for 60 minutes covered then read on an Envision plate reader (Perkin Elmer) and the 665 nm/620 nm fluorescence ratio determined Fluorescence ratio values were converted to molar cAMP concentrations from the standard curve using the GraphPad Prism program.

G protein-coupled receptor 88, sequence (Q9GZN0 whole entry, species assumed): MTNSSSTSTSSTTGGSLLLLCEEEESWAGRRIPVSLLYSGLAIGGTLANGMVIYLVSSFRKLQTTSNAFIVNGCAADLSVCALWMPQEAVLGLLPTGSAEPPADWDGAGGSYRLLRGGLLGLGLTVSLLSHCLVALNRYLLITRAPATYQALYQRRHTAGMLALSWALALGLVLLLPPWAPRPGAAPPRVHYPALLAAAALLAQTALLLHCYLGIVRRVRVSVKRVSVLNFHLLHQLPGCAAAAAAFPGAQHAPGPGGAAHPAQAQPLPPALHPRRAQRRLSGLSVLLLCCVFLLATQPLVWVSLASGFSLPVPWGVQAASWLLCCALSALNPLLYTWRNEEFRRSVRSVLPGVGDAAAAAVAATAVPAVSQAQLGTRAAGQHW

Row | Structure (SMILES) | EC50 [nM]
1 | CCCc1ccc(-c2ccc(N(CC3(N)CCOCC3)C(=O)[C@@H]3C[C@H]3c3ccccn3)cc2)cc1 (relative stereo) [Example 9, Trans-2-Pyridin-2-yl-cyclopropanecarboxylic acid (4-amino-tetrahydro-pyran-4-ylmethyl)-(4′-propyl-biphenyl-4-yl)-amide] | 3 to 20
2 | COCc1ccc(-c2ccc(N(CC3(N)CCCC3)C(=O)[C@@H]3C[C@H]3c3cccc(F)n3)cc2)cc1 (relative stereo) [Example 8, Trans-2-(6-fluoro-pyridin-2-yl)-cyclopropanecarboxylic acid (1-amino-cyclopentylmethyl)-(4′-methoxymethyl-biphenyl-4-yl)-amide] | 3 to 20
3 | CC[C@H](C)[C@H](N)CN(C(=O)[C@H]1C[C@@H]1c1ccc(F)cn1)c1ccc(-c2ccc(COC)cc2)cc1 (stereo in doubt) [Example 4, (Trans)-2-(5-fluoro-pyridin-2-yl)-cyclopropanecarboxylic acid ((2S,3S)-2-amino-3-methyl-pentyl)-(4′-methoxymethyl-biphenyl-4-yl)-amide] | 3 to 20
4 | CC[C@H](C)[C@H](N)CN(C(=O)[C@@H]1C[C@H]1c1ccccn1)c1ccc(-c2ccc(COC)cc2)cc1 [Example 1, (1R,2R)-2-Pyridin-2-yl-cyclopropanecarboxylic acid ((2S,3S)-2-amino-3-methyl-pentyl)-(4′-methoxymethyl-biphenyl-4-yl)-amide] | 3 to 20
5 | CC#Cc1ccc(-c2ccc(N(C[C@@H](N)[C@@H](C)CC)C(=O)[C@@H]3C[C@H]3c3ccccn3)cc2)cc1 [Example 5, (1R,2R)-2-pyridin-2-yl-cyclopropanecarboxylic acid ((2S,3S)-2-amino-3-methyl-pentyl)-(4′-prop-1-ynyl-biphenyl-4-yl)-amide] | 3 to 20
6 | CCCc1ccc(-c2ccc(N(CC3(N)CCCC3)C(=O)[C@@H]3C[C@H]3c3cccc(F)n3)cc2)cc1 (relative stereo) [Example 6, Trans-2-(6-fluoro-pyridin-2-yl)-cyclopropanecarboxylic acid (1-amino-cyclopentylmethyl)-(4′-propyl-biphenyl-4-yl)-amide] | 3 to 20
7 | CC(C)Oc1ccc(-c2ccc(N(CC3(N)CCCC3)C(=O)[C@@H]3C[C@H]3c3cccc(F)n3)cc2)cc1 (relative stereo) [Example 7, Trans-2-(6-fluoro-pyridin-2-yl)-cyclopropanecarboxylic acid (1-amino-cyclopentylmethyl)-(4′-isopropoxy-biphenyl-4-yl)-amide] | 3 to 20
8 | CC[C@H](C)[C@H](N)CN(C(=O)[C@@H]1C[C@H]1c1ccccn1)c1ccc(-c2ccc(OC(C)C)cc2)cc1 [Example 2, (1R,2R)-2-Pyridin-2-yl-cyclopropanecarboxylic acid ((2S,3S)-2-amino-3-methyl-pentyl)-(4′-isopropoxy-biphenyl-4-yl)-amide] | 3 to 20

Continued, values first:

Row | EC50 [nM] | Structure (SMILES)
9 | 3 to 20 | CCCc1ccc(-c2ccc(N(C[C@@H](N)[C@@H](C)CC)C(=O)[C@H]3C[C@@H]3c3ncccc3F)cc2)cc1 [Example 10]
10 | 3 to 20 | CCCc1ccc(-c2ccc(N(C[C@@H](N)[C@@H](C)CC)C(=O)C3CC3c3cnccn3)cc2)cc1 (stereo partly drawn) [Example 11, (Trans)-2-pyrazin-2-yl-cyclopropanecarboxylic acid ((2S,3S)-2-amino-3-methyl-pentyl)-(4′-propyl-biphenyl-4-yl)-amide]
11 | 3 to 20 | CC[C@H](C)[C@H](N)CN(C(=O)[C@@H]1C[C@H]1c1ccc(F)cn1)c1ccc2cc(C3CC3)ccc2c1 [Example 20]
12 | 3 to 20 | CC[C@H](C)[C@H](N)CN(C(=O)[C@@H]1C[C@H]1c1ccc(F)cn1)c1ccc(OCC2CCC2)cc1 [Example 17, (1R,2R)-2-(5-Fluoro-pyridin-2-yl)-cyclopropanecarboxylic acid ((2S,3S)-2-amino-3-methyl-pentyl)-(4-cyclobutylmethoxy-phenyl)-amide]
13 | 3 to 20 | CCCC#Cc1ccc(N(C[C@@H](N)[C@@H](C)CC)C(=O)C2CC2c2cccc(F)n2)cc1 (stereo in doubt) [Example 19, (1S,2S)-2-(6-Fluoro-pyridin-2-yl)-cyclopropanecarboxylic acid ((2S,3S)-2-amino-3-methyl-pentyl)-(4-pent-1-ynyl-phenyl)-amide 2TFA]
14 | 3 to 20 | CCCc1ccc(-c2ccc(N(C[C@@H](N)[C@@H](C)OC)C(=O)[C@@H]3C[C@H]3c3cnccn3)cc2)cc1 [Example 18, Trans-2-pyrazin-2-yl-cyclopropanecarboxylic acid ((2R,3R)-2-amino-3-methoxy-butyl)-(4′-propyl-biphenyl-4-yl)-amide]
15 | 3 to 20 | CC[C@H](C)[C@H](N)CN(C(=O)[C@@H]1C[C@H]1c1ccccn1)c1ccc(OCC2CCC2)cc1 [Example 13, (1R,2R)-2-Pyridin-2-yl-cyclopropanecarboxylic acid ((2S,3S)-2-amino-3-methyl-pentyl)-(4-cyclobutylmethoxy-phenyl)-amide]
16 | 3 to 20 | CCCc1ccc(-c2ccc(N(C[C@@H](N)[C@@H](C)CC)C(=O)[C@@H]3C[C@H]3c3cccc(F)n3)cc2)cc1 [Example 14, Trans-2-(6-fluoro-pyridin-2-yl)-cyclopropanecarboxylic acid ((2S,3S)-2-amino-3-methyl-pentyl)-(4′-propyl-biphenyl-4-yl)-amide]
17 | 3 to 20 | CC[C@H](C)[C@H](N)CN(C(=O)[C@@H]1C[C@H]1c1cccc(F)n1)c1ccc(-c2ccc(COC)cc2)cc1 [Example 16, Trans-2-(6-fluoro-pyridin-2-yl)-cyclopropanecarboxylic acid ((2S,3S)-2-amino-3-methyl-pentyl)-(4′-methoxymethyl-biphenyl-4-yl)-amide]

Same assay, conditions: value given as number; read-out: Range (EC50)

Row | EC50 [nM] | Structure (SMILES)
18 | 20 | CC[C@H](C)[C@H](N)CN(C(=O)[C@@H]1C[C@H]1c1ccc(F)cn1)c1ccc(OCC2CCC2)cc1 [Example 12, 2-(5-Fluoro-pyridin-2-yl)-cyclopropanecarboxylic acid ((2S,3S)-2-amino-3-methyl-pentyl)-(4-cyclobutylmethoxy-phenyl)-amide]
19 | 8 | CC[C@H](C)[C@H](N)CN(C(=O)[C@@H]1C[C@H]1c1cccc(F)n1)c1ccc(-c2ccc(OC(C)C)cc2)cc1 [Example 15, Trans-2-(6-fluoro-pyridin-2-yl)-cyclopropanecarboxylic acid ((2S,3S)-2-amino-3-methyl-pentyl)-(4′-isopropoxy-biphenyl-4-yl)-amide]

System: not given
Test: not given
Details: not given

Row | melting point [°C] | Structure (SMILES)
20 | 180 to 183 | CCCc1ccc(-c2ccc(N(CC3(N)CCOCC3)C(=O)[C@@H]3C[C@H]3c3ccccn3)cc2)cc1 (relative stereo) (as salt: hydrochloride) [Example 9, Trans-2-Pyridin-2-yl-cyclopropanecarboxylic acid (4-amino-tetrahydro-pyran-4-ylmethyl)-(4′-propyl-biphenyl-4-yl)-amide]
